The source of these data is patent publication EP4722219A1 (Gan & Lee Pharmaceuticals Co., Ltd., priority 2023, dated 2024).

One test concerns LNCaP cells. The test is described as follows: Inhibition of LNCaP cell proliferation (WST-8). Type of test: cell-based. The following applies: Homo sapiens, LNCaP FGC cells, 96 hours. The gist of the method:
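Cells were seeded and cultured overnight at 37 °C, 5% CO2, then exposed for 96 h to compound at 9 concentrations, 5-fold serial dilution from 10 µM final. Viability was read by WST-8 absorbance at 450 nm.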
(In general: Tetrazolium assays rely on reduction of a dye to a coloured formazan, in cell work by metabolically active cells.)

For the next test, the target named is T1, AR protein (Homo sapiens, UniProt P10275).
T1 construct: host or cells: VCaP
T1 sequence (P10275 1-920): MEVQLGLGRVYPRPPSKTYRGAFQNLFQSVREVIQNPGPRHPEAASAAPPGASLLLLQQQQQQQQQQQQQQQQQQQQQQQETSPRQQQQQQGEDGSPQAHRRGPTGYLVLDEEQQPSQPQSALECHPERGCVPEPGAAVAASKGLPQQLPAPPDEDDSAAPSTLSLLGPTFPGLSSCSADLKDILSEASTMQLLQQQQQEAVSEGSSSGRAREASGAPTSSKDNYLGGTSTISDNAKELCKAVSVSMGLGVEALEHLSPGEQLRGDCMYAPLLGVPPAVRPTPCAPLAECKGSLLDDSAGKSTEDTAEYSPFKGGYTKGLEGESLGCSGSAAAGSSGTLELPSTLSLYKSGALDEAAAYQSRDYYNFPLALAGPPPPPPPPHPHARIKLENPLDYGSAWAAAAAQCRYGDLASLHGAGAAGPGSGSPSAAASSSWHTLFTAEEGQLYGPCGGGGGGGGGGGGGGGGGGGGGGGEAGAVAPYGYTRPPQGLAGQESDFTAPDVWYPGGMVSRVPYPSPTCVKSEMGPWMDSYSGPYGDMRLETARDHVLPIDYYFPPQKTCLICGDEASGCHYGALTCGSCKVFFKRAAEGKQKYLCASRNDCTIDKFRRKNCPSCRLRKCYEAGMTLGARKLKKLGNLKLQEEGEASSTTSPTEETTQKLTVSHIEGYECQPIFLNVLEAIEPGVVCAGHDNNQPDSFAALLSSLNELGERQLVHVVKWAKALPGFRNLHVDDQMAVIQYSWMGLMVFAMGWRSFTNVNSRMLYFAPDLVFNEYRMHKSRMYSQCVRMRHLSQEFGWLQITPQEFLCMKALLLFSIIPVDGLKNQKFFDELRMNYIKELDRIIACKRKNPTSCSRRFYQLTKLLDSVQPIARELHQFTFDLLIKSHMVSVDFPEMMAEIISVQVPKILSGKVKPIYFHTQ
The test is described as follows: AR protein degradation in VCaP cells (Western blot). The format is cell-based. The note with it: 8h. The essentials:
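AR-positive VCaP human prostate cancer cells grown in DMEM with 10% FBS were plated in six-well plates at 3×10^5 cells/well and incubated overnight. Compounds were then added at 1 µL/well alongside a solvent control and incubated for 8h. Lysates in RIPA buffer with protease inhibitor were quantified by BCA and run by SDS-PAGE. AR was detected by Western blot, and degradation was calculated from band grayscale normalized to GAPDH.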

In the test with LNCaP cells, `Cn1c(=O)n(C2CCC(=O)NC2=O)c2ccc3c(c21)OCC31CCN(C2CCN(c3ccc(C(=O)N[C@H]4CC[C@H](Oc5ccc(C#N)c(Cl)c5)CC4)nn3)CC2)CC1` (stereo partly drawn) [A-P-23] came in with a concentration for half-maximal inhibition (IC50) of 22.4 µM. In addition, the AR protein degradation rate at fixed concentration (%) at 0.0005 µM on AR protein (0.5 nM) was 85%. Moreover, the AR protein degradation rate at fixed concentration (%) at 0.005 µM on AR protein (5 nM) worked out at 74%.

The molecule `Cn1c(=O)n(C2CCC(=O)NC2=O)c2ccc3c(c21)OCC31CCN(CC2CCN(c3ccc(C(=O)N[C@H]4CC[C@H](Oc5ccc(C#N)c(Cl)c5)CC4)nn3)CC2)CC1` (stereo partly drawn) [A-P-24] registered an IC50 in the test with LNCaP cells of 22.8 µM. For the same molecule, the AR protein degradation rate at fixed concentration (%) at 0.0005 µM at AR protein (0.5 nM) is 85%. In addition, the AR protein degradation rate at fixed concentration (%) at 0.005 µM at AR protein (5 nM) amounted to 85%.

`Cn1c(=O)n(C2CCC(=O)NC2=O)c2ccc3c(c21)OCC31CCN(C2CC3(CCN(c4ccc(C(=O)N[C@H]5CC[C@H](Oc6ccc(C#N)c(Cl)c6)CC5)nn4)CC3)C2)CC1` (stereo partly drawn) [A-P-25] came in with an IC50 in the test on LNCaP cells of 47.7 µM. In addition, at AR protein (0.5 nM), the AR protein degradation rate at fixed concentration (%) at 0.0005 µM was 91%. Also, on AR protein (5 nM), the AR protein degradation rate at fixed concentration (%) at 0.005 µM stood at 90%.

On to `C[C@H]1CC2(CCN(c3ccc(N4CCC(CN5CCC6(CC5)COc5ccc7c(c56)n(C)c(=O)n7C5CCC(=O)NC5=O)CC4)cc3)CC2)CN1c1ccc(C#N)c(Cl)c1` (stereo partly drawn) [A-P-26, 2-chloro-4-((3 S)-8-(4-(4-((3-((2,6-dioxopiperidin-3-yl))-1-methyl-2-oxo-2,3-dihydro-1H,7H-spiro[benzofuro[4,5-d]imidazole-8,4'-piperidin]-1'-yl)methyl)piperidin-1-yl)phenyl)-3-methyl-2,8-diazaspiro[4.5]decan-2-yl)benzonitrile], for which the midpoint of inhibition in the test on LNCaP cells, the IC50, lay at 4.91 µM. Further, the AR protein degradation rate at fixed concentration (%) at 0.0005 µM at AR protein (0.5 nM) is -43%. Moreover, the AR protein degradation rate at fixed concentration (%) at 0.005 µM at AR protein (5 nM) was 18%.

In the test on LNCaP cells, `COc1cc(O[C@H]2C(C)(C)[C@H](NC(=O)c3ccc(N4CCC(N5CCC6(CC5)COc5c6ccc6c5n(C)c(=O)n6C5CCC(=O)NC5=O)CC4)cc3)C2(C)C)ccc1C#N` (stereo partly drawn) [A-P-29] registered an IC50 of 15.1 µM. Also, on AR protein (0.5 nM), the AR protein degradation rate at fixed concentration (%) at 0.0005 µM came out at 70%. Moreover, the AR protein degradation rate at fixed concentration (%) at 0.005 µM on AR protein (5 nM) stood at 68%.

In turn, `COc1cc(O[C@H]2C(C)(C)[C@H](NC(=O)c3ccc(N4CCC(CN5CCC6(CCc7cc(C(=O)N[C@H]8CCC(=O)NC8=O)c(F)cc7O6)CC5)CC4)cc3)C2(C)C)ccc1C#N` [A-P-30] registered an IC50 with LNCaP cells of 1.48 µM. Besides, the “Degradation rate of AR protein in VCaP cells” value (shortened to “Degradation rate of AR protein”) at AR protein (0.5 nM) worked out at 36%; on AR protein (5 nM), 71%.

The molecule `COc1cc(O[C@H]2C(C)(C)[C@H](NC(=O)c3ccc(N4CCC(C)(CN5CCC6(CCc7cc(C(=O)N[C@H]8CCC(=O)NC8=O)c(F)cc7O6)CC5)CC4)cc3)C2(C)C)ccc1C#N` [A-P-31, 1'-((1-((4-((1r,3r)-3-(4-cyano-3-methoxyphenoxy)-2,2,4,4-tetramethylcyclobutyl)carbamoyl)phenyl)-4-methylpiperidin-4-yl)methyl)-N-((S)-2,6-dioxopiperidin-3-yl)-7-fluorospiro[2,4'-piperidin]-6-carboxamide] returned an IC50 in the test on LNCaP cells of 0.58 µM. In addition, the AR protein degradation rate at fixed concentration (%) at 0.0005 µM on AR protein (0.5 nM) was -13%. The AR protein degradation rate at fixed concentration (%) at 0.005 µM on AR protein (5 nM) turned out to be 41%.

Take `COc1cc(O[C@H]2C(C)(C)[C@H](NC(=O)c3ccc(N4CCC(CN5CCC6(CCc7cc(C(=O)N[C@H]8CCC(=O)NC8=O)c(F)cc7O6)CC5)CC4)nc3)C2(C)C)ccc1C#N` [A-P-33, 1'-((1-(5-(((1R,3R)-3-(4-cyano-3-methoxyphenoxy)-2,2,4,4-tetramethylcyclobutyl)carbamoyl)pyridin-2-yl)piperidin-4-yl)methyl)-N-((S)-2,6-dioxopiperidin-3-yl)-7-fluorospiro[chroman-2,4'-piperidin]-6-carboxamide]: half-maximal inhibition in the test on LNCaP cells (IC50) required 1.58 µM. The “Degradation rate of AR protein” value at AR protein (0.5 nM) is 56%; at AR protein (5 nM), 84%.

Regarding `COc1cc(O[C@H]2C(C)(C)[C@H](NC(=O)c3ccc(N4CCC(CN5CCC6(CCc7cc(C(=O)N[C@H]8CCC(=O)NC8=O)c(F)cc7O6)CC5)CC4)nn3)C2(C)C)ccc1C#N` [A-P-34, 1'-((1-(6-(((1R,3R)-3-(4-cyano-3-methoxyphenoxy)-2,2,4,4-tetramethylcyclobutyl)carbamoyl)pyridazin-3-yl)piperidin-4-yl)methyl)-N-((S)-2,6-dioxopiperidin-3-yl)-7-fluorospiro[chroman-2,4'-piperidin]-6-carboxamide], the IC50 with LNCaP cells came to 0.87 µM. In addition, the “Degradation rate of AR protein” value on AR protein (0.5 nM) was 0%; at AR protein (5 nM), 47%.

As for `C[C@H]1CC2(CCN(c3ccc(C(=O)N4CCC(CN5CCC6(CCc7cc(C(=O)N[C@H]8CCC(=O)NC8=O)c(F)cc7O6)CC5)CC4)cc3)CC2)CN1c1ccc(C#N)c(Cl)c1` [A-P-35, 1'-((1-(4-((S)-2-(3-chloro-4-cyanophenyl)-3-methyl-2,8-diazaspiro[4.5]decan-8-yl)benzoyl)piperidin-4-yl)methyl)-N-((S)-2,6-dioxopiperidin-3-yl)-7-fluorospiro[chroman-2,4'-piperidin]-6-carboxamide], the half-maximal inhibitory concentration (IC50) in the test with LNCaP cells is 0.28 µM. In addition, at AR protein (0.5 nM), the AR protein degradation rate at fixed concentration (%) at 0.0005 µM came to 9%. Also, the AR protein degradation rate at fixed concentration (%) at 0.005 µM at AR protein (5 nM) was determined as 18%.

Molecule `COc1cc(O[C@H]2C(C)(C)[C@H](NC(=O)c3ccc(N4CCC(CN5CCC6(CCc7cc(C(=O)N[C@H]8CCC(=O)NC8=O)c(F)cc7O6)CC5)(OC)CC4)cc3)C2(C)C)ccc1C#N` [A-P-36] displayed an IC50 in the test with LNCaP cells of 0.82 µM. Further, the entries for the “Degradation rate of AR protein” value at AR protein (0.5 nM) and on AR protein (5 nM) were 9% and 45%, respectively.

`COc1cc(O[C@H]2C(C)(C)[C@H](NC(=O)c3ccc(N4CCC5(CC4)CC(N4CCC6(CCc7cc(C(=O)N[C@H]8CCC(=O)NC8=O)c(F)cc7O6)CC4)C5)cc3)C2(C)C)ccc1C#N` [A-P-37, 1'-(7-(4-(((1R,3R)-3-(4-cyano-3-methoxyphenoxy)-2,2,4,4-tetramethylcyclobutyl)carbamoyl)phenyl)-7-azaspiro[3.5]nonan-2-yl)-N-((S)-2,6-dioxopiperidin-3-yl)-7-fluorospiro[chroman-2,4'-piperidin]-6-carboxamide] registered an IC50 in the test with LNCaP cells of 2.23 µM. Moreover, the “Degradation rate of AR protein” value at AR protein (0.5 nM) is 25%; on AR protein (5 nM), 49%.

Turning to `COc1cc(O[C@H]2C(C)(C)[C@H](NC(=O)c3ccc(N4CCC(C)(CN5CCC6(CCc7cc(F)c(C(=O)N[C@H]8CCC(=O)NC8=O)cc7O6)CC5)CC4)cc3)C2(C)C)ccc1C#N` [A-P-38, 1-(1-(4-((1R,3R)-3-((4-cyano-3-methoxyphenoxy)-2,2,4,4-tetramethylcyclobutyl)carbamoyl)phenyl)-4-methylpiperidin-4-methyl)-N-((S)-2,6-dioxopiperidin-3-yl)-6-fluorospiro[chroman-2,4'-piperidin]-7-carboxamide], the IC50 in the test on LNCaP cells turned out to be 1.49 µM. In addition, the entries for the “Degradation rate of AR protein” value at AR protein (0.5 nM) and on AR protein (5 nM) were -21% and -5%, respectively.

In the test on LNCaP cells, `COc1cc(O[C@H]2C(C)(C)[C@H](NC(=O)c3ccc(N4CCC(CN5CCC6(CCc7cc(F)c(C(=O)N[C@H]8CCC(=O)NC8=O)cc7O6)CC5)CC4)cc3)C2(C)C)ccc1C#N` [A-P-39] gave an IC50 of 12.4 µM. In addition, the “Degradation rate of AR protein” value at AR protein (0.5 nM) was -6%; on AR protein (5 nM), 9%.

Consider `COc1cc(O[C@H]2C(C)(C)[C@H](NC(=O)c3ccc(N4CCC(CN5CCC6(CCc7cc(F)c(C(=O)N[C@H]8CCC(=O)NC8=O)cc7O6)CC5)(OC)CC4)cc3)C2(C)C)ccc1C#N` [A-P-40], for which, in the test on LNCaP cells, it took 6.56 µM to reach half-maximal inhibition (IC50). The “Degradation rate of AR protein” value on AR protein (0.5 nM) is -8%; at AR protein (5 nM) it was 10%.

In the test with LNCaP cells, `COc1cc(O[C@H]2C(C)(C)[C@H](NC(=O)c3ccc(N4CCC(F)(CN5CCC6(CCc7cc(F)c(C(=O)N[C@H]8CCC(=O)NC8=O)cc7O6)CC5)CC4)cc3)C2(C)C)ccc1C#N` [A-P-41] registered an IC50 of 18.6 µM. Further, the results for the “Degradation rate of AR protein” value at AR protein (0.5 nM) and on AR protein (5 nM) were 13% and 18%, respectively.

In general, IC50 refers to the concentration at which inhibition is half-maximal.
